Laboratory results as given in patent US20180304019A1, “ADMINISTRATION APPARATUS” (DAICEL CORPORATION, priority 2015, published 2018).
Where two headings read alike, the source gives them in different places.

Test system: intradermal layer, skin tissue of the rabbit in vivo
Details: dose 100 μl
Experimental: Moreover, an object of the following experimental conditions is to confirm, when an inflammatory substance is administered to the intradermal layer which is skin tissue of the rabbit in vivo, a presence or absence of an inflammatory response (formation of erythema and eschar, and formation of edema) for each elapsed time (after 24 hours, 48 hours, and 72 hours). In addition, the injection of an injection solution with the needled injector was performed at a constant pressurization rate.
16-week-old male Std: JW/CSK rabbit, already shaved and smooth skin-verified, was used.
An aqueous solution of the following inflammatory substance was used as the dosing liquid and the injection solution.
Inflammatory substance: acetic acid, diluted to a predetermined concentration with distilled water, dose 100 μl
Definitions of numerical values representing the experimental results in the tables with respect to each of erythema and eschar formation and edema formation are as follows.
(Erythema and Eschar Formation)
1 Very slight erythema (barely perceptible erythema)
2 Slight erythema (clearly perceptible erythema)
3 Moderate to severe erythema
4 Severe erythema to eschar formations
1 Very slight edema (barely perceptible edema)
2 Slight edema (edema with edges perceptible due to definite raising)
3 Moderate edema (raised approximately 1 mm)
4 Severe edema (raised 1 mm or more and extending beyond the area of exposure)

[1] = acetic acid 0.25%, Comparative example (needled injector), 24 h
[2] = acetic acid 0.25%, Comparative example (needled injector), 48 h
[3] = acetic acid 0.25%, Comparative example (needled injector), 72 h
[4] = acetic acid 0.25%, Injector 1, 24 h
[5] = acetic acid 0.25%, Injector 1, 48 h
[6] = acetic acid 0.25%, Injector 1, 72 h
[7] = acetic acid 0.5%, Comparative example (needled injector), 24 h
[8] = acetic acid 0.5%, Comparative example (needled injector), 48 h
[9] = acetic acid 0.5%, Comparative example (needled injector), 72 h
[10] = acetic acid 0.5%, Injector 1, 24 h
[11] = acetic acid 0.5%, Injector 1, 48 h
[12] = acetic acid 0.5%, Injector 1, 72 h
[13] = acetic acid 1.0%, Comparative example (needled injector), 24 h
[14] = acetic acid 1.0%, Comparative example (needled injector), 48 h
[15] = acetic acid 1.0%, Comparative example (needled injector), 72 h
[16] = acetic acid 1.0%, Injector 1, 24 h
[17] = acetic acid 1.0%, Injector 1, 48 h
[18] = acetic acid 1.0%, Injector 1, 72 h
[19] = acetic acid 1.5%, Comparative example (needled injector), 24 h
[20] = acetic acid 1.5%, Comparative example (needled injector), 48 h
[21] = acetic acid 1.5%, Comparative example (needled injector), 72 h
[22] = acetic acid 1.5%, Injector 1, 24 h
[23] = acetic acid 1.5%, Injector 1, 48 h
[24] = acetic acid 1.5%, Injector 1, 72 h
[25] = acetic acid 2.0%, Comparative example (needled injector), 24 h
[26] = acetic acid 2.0%, Comparative example (needled injector), 48 h
[27] = acetic acid 2.0%, Comparative example (needled injector), 72 h
[28] = acetic acid 2.0%, Injector 1, 24 h
[29] = acetic acid 2.0%, Injector 1, 48 h
[30] = acetic acid 2.0%, Injector 1, 72 h

Edema 24 h [1]: 0
Erythema etc. 24 h [1]: 1
Edema 48 h [2]: 0
Erythema etc. 48 h [2]: 1
Edema 72 h [3]: 0
Erythema etc. 72 h [3]: 1
Edema 24 h [4]: 0
Erythema etc. 24 h [4]: 1
Edema 48 h [5]: 0
Erythema etc. 48 h [5]: 1
Edema 72 h [6]: 0
Erythema etc. 72 h [6]: 1
Edema 24 h [7]: 0
Erythema etc. 24 h [7]: 1
Edema 48 h [8]: 0
Erythema etc. 48 h [8]: 1
Edema 72 h [9]: 0
Erythema etc. 72 h [9]: 1
Edema 24 h [10]: 0
Erythema etc. 24 h [10]: 1
Edema 48 h [11]: 0
Erythema etc. 48 h [11]: 1
Edema 72 h [12]: 0
Erythema etc. 72 h [12]: 1
Edema 24 h [13]: 1
Erythema etc. 24 h [13]: 1
Edema 48 h [14]: 1
Erythema etc. 48 h [14]: 1
Edema 72 h [15]: 1
Erythema etc. 72 h [15]: 1
Edema 24 h [16]: 0
Erythema etc. 24 h [16]: 1
Edema 48 h [17]: 0
Erythema etc. 48 h [17]: 1
Edema 72 h [18]: 0
Erythema etc. 72 h [18]: 1
Edema 24 h [19]: 2
Erythema etc. 24 h [19]: 1
Edema 48 h [20]: 2
Erythema etc. 48 h [20]: 1
Edema 72 h [21]: 2
Erythema etc. 72 h [21]: 1
Edema 24 h [22]: 0
Erythema etc. 24 h [22]: 1
Edema 48 h [23]: 0
Erythema etc. 48 h [23]: 1
Edema 72 h [24]: 0
Erythema etc. 72 h [24]: 1
Edema 24 h [25]: 3
Erythema etc. 24 h [25]: 1
Edema 48 h [26]: 3
Erythema etc. 48 h [26]: 1
Edema 72 h [27]: 2
Erythema etc. 72 h [27]: 1
Edema 24 h [28]: 1
Erythema etc. 24 h [28]: 1
Edema 48 h [29]: 1
Erythema etc. 48 h [29]: 1
Edema 72 h [30]: 1
Erythema etc. 72 h [30]: 1
Compound: CC(=O)O [Acetic acid, acetic acid]
